Target: T1, cystine/glutamate antiporter (system xc-) (Homo sapiens, UniProt Q9UPY5)
T1 construct: gene SLC7A11
T1 sequence (Q9UPY5 1-501): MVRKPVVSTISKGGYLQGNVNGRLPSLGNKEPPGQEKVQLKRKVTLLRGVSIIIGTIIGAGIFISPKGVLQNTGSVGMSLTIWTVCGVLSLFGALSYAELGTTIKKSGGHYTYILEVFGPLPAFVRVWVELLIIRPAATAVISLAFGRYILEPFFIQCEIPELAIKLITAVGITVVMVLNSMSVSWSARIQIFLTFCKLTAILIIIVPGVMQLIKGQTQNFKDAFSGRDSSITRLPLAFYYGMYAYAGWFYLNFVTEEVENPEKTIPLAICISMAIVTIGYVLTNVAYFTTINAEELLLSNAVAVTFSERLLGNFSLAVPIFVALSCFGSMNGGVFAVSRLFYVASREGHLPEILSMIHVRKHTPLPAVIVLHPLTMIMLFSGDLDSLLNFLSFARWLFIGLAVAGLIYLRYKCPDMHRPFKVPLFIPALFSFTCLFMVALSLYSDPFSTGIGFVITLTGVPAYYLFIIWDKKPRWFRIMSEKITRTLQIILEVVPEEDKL
T1 sequence (P08195 2-529 partner): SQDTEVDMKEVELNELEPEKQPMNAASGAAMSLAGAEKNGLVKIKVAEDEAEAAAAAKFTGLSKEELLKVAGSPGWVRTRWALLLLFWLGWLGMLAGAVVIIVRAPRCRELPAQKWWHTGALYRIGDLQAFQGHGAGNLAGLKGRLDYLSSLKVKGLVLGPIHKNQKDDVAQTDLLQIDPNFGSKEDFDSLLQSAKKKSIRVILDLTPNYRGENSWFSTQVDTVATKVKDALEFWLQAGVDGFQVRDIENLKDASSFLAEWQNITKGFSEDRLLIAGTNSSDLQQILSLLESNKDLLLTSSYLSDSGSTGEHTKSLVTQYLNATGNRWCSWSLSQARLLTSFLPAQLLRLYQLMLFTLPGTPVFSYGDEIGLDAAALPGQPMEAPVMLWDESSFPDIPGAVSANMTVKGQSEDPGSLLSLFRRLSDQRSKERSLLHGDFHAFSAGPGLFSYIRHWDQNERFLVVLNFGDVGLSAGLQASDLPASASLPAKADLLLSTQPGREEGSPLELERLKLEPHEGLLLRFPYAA
Assay: […]-cystine uptake inhibition in AsPC-1 cells, […] min at […]
Assay type: cell-based
Conditions: ASPC1; read-out: % blockade at 200 μM

CCOc1ccccc1-n1c(CN2CCN(C(=O)COc3ccc(CNCCCCCCN4C5CCCC4CC(OC(=O)Nc4cc(C)ccc4OC)C5)cc3)CC2)nc2ccccc2c1=O (stereo not shown) [SW V-49]
inhibition at 200 µM: 85%

— article PMC5085100, “Conjugation to the sigma-2 ligand SV119 overcomes uptake blockade and converts dm-Erastin into a potent pancreatic cancer therapeutic” (Oncotarget, 2016)
